Assay results: patent publication US9499543B2, “Polymorph forms” (RaQualia Pharma Inc., priority 2013, dated 2016)

How the values were obtained:
[1] = Hygroscopicity study by dynamic vapor sorption (DVS) analysis; format: physicochemical; conditions: under 40%, 80%, and 90% relative humidity (RH) at 25 °C, comparing with compound prepared in EXAMPLE 2
Protocol: Hygroscopicity study by dynamic vapor sorption analysis (DVS)
Hygroscopicity study is performed using Surface Measurement Systems DVS-1. The sample is placed on a microbalance in the instrument and the weight change during the sorption/desorption cycle at 25° C. is monitored. One of the sorption/desorption programs consists of a sorption scan from 0 to 95% relative humidity (RH) and a desorption scan from 95 to 10% RH. The other consists of a sorption scan from 40 to 95% RH and desorption scan from 95 to 0% RH, followed by a second sorption scan from 0 to 40% RH. Both programs are carried out at 5% RH increments and the sample is allowed to equilibrate for 360 minutes or until equilibration had been attained at each step. At the end of the DVS experiment the sample is measured by PXRD.

[2] = Photostability / storage stability study; format: physicochemical
Protocol: Photostability samples are stored in open dishes with quartz glass covers and a second set of 25° C./60% RH, and 40° C./75% RH samples which are stored in open round amber glass bottles covered with gauze.

CN1N=C2CCN(C(=O)[C@@H](COCc3ccccc3)NC(=O)C(C)(C)N)C[C@@]2(Cc2ccccc2)C1=O.O=C(O)C(O)C(O)C(=O)O [Polymorph Form I, 2-amino-N-[2-(3a-(R)-benzyl-2-methyl-3-oxo-2,3,3a,4,6,7-hexahydro-pyrazolo[4,3-c]pyridin-5-yl)-1-(R)-benzyloxymethyl-2-oxo-ethyl]-isobutyramide L-tartrate Polymorph Form I]
moisture gain [1]: < 2%
loss in potency ([2]; any of the stability samples over 3 months): No significant loss
changes in the appearance, the X-ray diffraction patterns, and IR spectra ([2]; storage over 3 months, photostability, 25°C/60% RH and 40°C/75% RH samples): no significant changes
